In patent US6737383B1, “Herbicidal oxadiazolidines” (priority 1999, dated 2004):

What was measured:
bedstraw = test: Test B pre/postemergence bedstraw; type: in vivo, Galium aparine; settings: for Bedstraw plant response rating: Postemergence
In short: (§1)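 Herbicidal effect was estimated by eye on a ten-point control scale after plants spent twelve to sixteen days in a greenhouse following soil or foliar treatment. Foliar sprays targeted plants at one to four leaves; all doses were formulated in a non-phytotoxic solvent with surfactant.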

surinam grass = test: Test B pre/postemergence surinam grass; type: in vivo, Brachiaria decumbens
In short: as §1

cocklebur = test: Test B pre/postemergence cocklebur; type: in vivo, Xanthium strumarium
In short: as §1

corn = test: Test B pre/postemergence corn; type: in vivo, Zea mays
In short: as §1

giant foxtail = test: Test B pre/postemergence giant foxtail; type: in vivo, Setaria faberii
In short: as §1

pigweed = test: Test B pre/postemergence pigweed; type: in vivo, Amaranthus retroflexus
In short: as §1

rape = test: Test B pre/postemergence rape; type: in vivo, Brassica napus
In short: as §1

soybean = test: Test B pre/postemergence soybean; type: in vivo, Glycine max
In short: as §1

sugar beet = test: Test B pre/postemergence sugar beet; type: in vivo, Beta vulgaris
In short: as §1

velvetleaf = test: Test B pre/postemergence velvetleaf; type: in vivo, Abutilon theophrasti
In short: as §1

wheat = test: Test B pre/postemergence wheat; type: in vivo, Triticum aestivum
In short: as §1

wild oat = test: Test B pre/postemergence wild oat; type: in vivo, Avena fatua
In short: as §1

purple nutsedge = test: Test B pre/postemergence purple nutsedge; type: in vivo, Cyperus rotundus
In short: as §1

rice = test: Test B flood test rice; type: in vivo, Oryza sativa
In short: (§2)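 Flood test on plants grown to the 2-leaf stage; treated plants kept in greenhouse twelve to sixteen days, then visually rated against controls on a 0 (no effect) to 10 (complete control) scale.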

smallflower flatsedge = test: Test B flood test smallflower flatsedge; type: in vivo, Cyperus difformis
In short: as §2

duck salad = test: Test B flood test duck salad; type: in vivo, Heteranthera limosa
In short: as §2

[1] = Preemergence, Rate 62 g/ha, scale of 0 to 10 where 0 is no effect and 10 is complete control
[2] = Postemergence, Rate 125 g/ha, scale 0 to 10, 0 is no effect, 10 is complete control
[3] = Postemergence, Rate 500 g/ha, scale of 0 to 10 where 0 is no effect and 10 is complete control
[4] = Preemergence, Rate 125 g/ha, scale 0 to 10, 0 is no effect, 10 is complete control
[5] = Preemergence, Rate 250 g/ha, scale 0 to 10, 0 is no effect, 10 is complete control
[6] = Preemergence, Rate 500 g/ha, scale 0 to 10, 0 is no effect, 10 is complete control
[7] = Rate 62 g/ha, Postemergence, scale 0 to 10, 0 no effect, 10 complete control
[8] = Postemergence, Rate 250 g/ha, scale 0 to 10
[9] = Rate 62 g/ha, flood test species, Pre-emergence, visual evaluation after twelve to sixteen days
[10] = Rate 125 g/ha, under heading Pre-emergence, flood test species, visual evaluation after twelve to sixteen days
[11] = Rate 250 g/ha, Pre-emergence (flood test species), scale 0 to 10, 0 is no effect, 10 is complete control
[12] = Rate 500 g/ha, Pre-emergence, flood test species, scale 0 to 10 (0 no effect, 10 complete control)

CC(C)N(C(=O)n1oc(=O)n(Cc2cnc(Cl)s2)c1=O)c1ccc(F)cc1 [Compound 482]
Bedstraw plant response rating (bedstraw; Rate 125 g/ha, scale 0 to 10, 0 is no effect, 10 is complete control): 0
Bedstraw plant response rating (bedstraw; Rate 250 g/ha, scale 0 to 10): 0
Plant response rating, Bedstraw (bedstraw; [1]): 0
Bedstraw plant response rating (bedstraw; Rate 62 g/ha, scale 0 to 10, 0 no effect, 10 complete control): 0
B. signalgrass plant response rating (surinam grass; [2]): 0
B. signalgrass plant response rating (surinam grass; Postemergence, Rate 250 g/ha, scale 0 to 10, 0 no effect, 10 complete control): 0
B. signalgrass plant response rating (surinam grass; [3]): 0
Plant response rating, B. signalgrass (surinam grass; [1]): 0
B. signalgrass plant response rating (surinam grass; [4]): 0
B. signalgrass plant response rating (surinam grass; [5]): 0
B. signalgrass plant response rating (surinam grass; [6]): 0
B. signalgrass plant response rating (surinam grass; [7]): 0
Cocklebur plant response rating (cocklebur; [2]): 0
Cocklebur plant response rating (cocklebur; [8]): 0
Cocklebur plant response rating (cocklebur; [3]): 0
Plant response rating, Cocklebur (cocklebur; [1]): 0
Cocklebur plant response rating (cocklebur; [4]): 0
Cocklebur plant response rating (cocklebur; [5]): 0
Cocklebur plant response rating (cocklebur; [6]): 0
Cocklebur plant response rating (cocklebur; [7]): 0
Corn plant response rating (corn; [2]): 0
Corn plant response rating (corn; [8]): 0
Corn plant response rating (corn; [3]): 0
Plant response rating, Corn (corn; [1]): 0
Corn plant response rating (corn; [4]): 0
Corn plant response rating (corn; [5]): 0
Corn plant response rating (corn; [6]): 0
Corn plant response rating (corn; [7]): 0
Giant foxtail plant response rating (giant foxtail; [2]): 0
Giant foxtail plant response rating (giant foxtail; [8]): 0
Giant foxtail plant response rating (giant foxtail; [3]): 2
Plant response rating, Giant foxtail (giant foxtail; [1]): 1
Giant foxtail plant response rating (giant foxtail; [4]): 6
Giant foxtail plant response rating (giant foxtail; [5]): 8
Giant foxtail plant response rating (giant foxtail; [6]): 9
Giant foxtail plant response rating (giant foxtail; [7]): 0
Redroot pigweed plant response rating (pigweed; [2]): 0
Redroot pigweed plant response rating (pigweed; [8]): 2
Plant response rating, Redroot pigweed (pigweed; [1]): 0
Redroot pigweed plant response rating (pigweed; [4]): 0
Redroot pigweed plant response rating (pigweed; [5]): 0
Redroot pigweed plant response rating (pigweed; [6]): 0
Redroot pigweed plant response rating (pigweed; [7]): 0
Rape plant response rating (rape; [2]): 0
Rape plant response rating (rape; [8]): 0
Plant response rating, Rape (rape; [1]): 0
Rape plant response rating (rape; [4]): 0
Rape plant response rating (rape; [5]): 0
Rape plant response rating (rape; [6]): 0
Rape plant response rating (rape; [7]): 0
Soybean plant response rating (soybean; [2]): 1
Soybean plant response rating (soybean; [8]): 1
Plant response rating, Soybean (soybean; [1]): 0
Soybean plant response rating (soybean; [4]): 0
Soybean plant response rating (soybean; [5]): 0
Soybean plant response rating (soybean; [6]): 0
Soybean plant response rating (soybean; [7]): 1
Sugarbeets plant response rating (sugar beet; [2]): 0
Sugarbeets plant response rating (sugar beet; [8]): 0
Plant response rating, Sugarbeets (sugar beet; [1]): 0
Sugarbeets plant response rating (sugar beet; [4]): 0
Sugarbeets plant response rating (sugar beet; [5]): 0
Sugarbeets plant response rating (sugar beet; [6]): 0
Sugarbeets plant response rating (sugar beet; [7]): 0
Velvetleaf plant response rating (velvetleaf; [2]): 0
Velvetleaf plant response rating (velvetleaf; [8]): 0
Plant response rating, Velvetleaf (velvetleaf; [1]): 0
Velvetleaf plant response rating (velvetleaf; [4]): 0
Velvetleaf plant response rating (velvetleaf; [5]): 0
Velvetleaf plant response rating (velvetleaf; [6]): 2
Velvetleaf plant response rating (velvetleaf; [7]): 0
Wheat plant response rating (wheat; [2]): 0
Wheat plant response rating (wheat; [8]): 0
Plant response rating, Wheat (wheat; [1]): 0
Wheat plant response rating (wheat; [4]): 0
Wheat plant response rating (wheat; [5]): 0
Wheat plant response rating (wheat; [6]): 0
Wheat plant response rating (wheat; [7]): 0
Wild oats plant response rating (wild oat; [2]): 0
Wild oats plant response rating (wild oat; [8]): 0
Plant response rating, Wild oats (wild oat; [1]): 0
Wild oats plant response rating (wild oat; [4]): 0
Wild oats plant response rating (wild oat; [5]): 0
Wild oats plant response rating (wild oat; [6]): 3
Wild oats plant response rating (wild oat; [7]): 0
Nutsedge plant response rating (purple nutsedge; [2]): 0
Nutsedge plant response rating (purple nutsedge; [8]): 0
Plant response rating, Nutsedge (purple nutsedge; [1]): 0
Nutsedge plant response rating (purple nutsedge; [4]): 0
Nutsedge plant response rating (purple nutsedge; [5]): 0
Nutsedge plant response rating (purple nutsedge; [6]): 0
Nutsedge plant response rating (purple nutsedge; [7]): 0
Plant response rating, Rice (0 to 10 scale, 0 is no effect, 10 is complete control) (rice; [9]): 0
Rice plant response rating (0 to 10 scale, 0 is no effect, 10 is complete control) (rice; [10]): 0
Rice plant response rating (rice; [11]): 0
Rice plant response rating (rice; [12]): 0
Plant response rating, S. Flatsedge (0 to 10 scale, 0 is no effect, 10 is complete control) (smallflower flatsedge; [9]): 0
S. Flatsedge plant response rating (0 to 10 scale, 0 is no effect, 10 is complete control) (smallflower flatsedge; [10]): 0
S. Flatsedge plant response rating (smallflower flatsedge; [11]): 0
S. Flatsedge plant response rating (smallflower flatsedge; [12]): 0
Plant response rating, Ducksalad (0 to 10 scale, 0 is no effect, 10 is complete control) (duck salad; [9]): 0
Ducksalad plant response rating (0 to 10 scale, 0 is no effect, 10 is complete control) (duck salad; [10]): 0
Ducksalad plant response rating (duck salad; [11]): 0
Ducksalad plant response rating (duck salad; [12]): 0
